Measurements taken from the supplement of paper PMC10627819.

What was measured:
B. subtilis 168 [1] = experiment: Bliss interaction score (quartile over a dose matrix) (fitness difference); higher = more antagonism (negative = synergy)
In short: (§1)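 The Bliss score is observed fitness minus expected fitness, where the expected value is the product of single-drug fitness values inferred from combination data. Fitness is OD595 at entry into stationary phase normalised to the plate's robust no-drug mean and capped at 1. Scores are reported as quartiles spanning technical, biological and donor/recipient replicates.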

S. aureus DSM 20231 = experiment: as above
In short: as §1

S. aureus Newman [2] = experiment: as above
In short: as §1

S. pneumoniae D39V = experiment: as above
In short: as §1

B. subtilis 168 [3] = experiment: fitness (endpoint OD595 vs no drug) (fraction); higher = more growth
In short: (§2)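 Growth medium was TSB, LB Lennox or CY, and plates were kept at 37 °C. Inoculation was at OD595 0.01 in 384-well plates, at 30 µl per well or 55 µl for S. pneumoniae. OD595 was monitored every 30 min for 14 h and background-subtracted using the first reading. Fitness is the optical density on entering stationary phase divided by the robust mean of no-drug controls, with values capped at 1.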

S. aureus Newman [4] = experiment: as above; details: one replicate
In short: as §2
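For Bliss interaction score (quartile over a dose matrix) in this document: first quartile when negative (synergy) and third quartile when positive (antagonism).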
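For fitness (endpoint OD595 vs no drug) in this document: OD595 on entry to stationary phase over no-drug wells; at most 1.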

CO/N=C(\C(=O)N[C@@H]1C(=O)N2C(C(=O)O)=C(COC(N)=O)CS[C@H]12)c1ccco1 [Cefuroxime] + CN1C2=CC=CC=C2N=C3C1=CC=CC3=O [Pyocyanin]
Details | Bliss interaction score
B. subtilis 168 [1] | 0.0646
S. aureus DSM 20231 | -0.0629
S. aureus Newman [2] | -0.0853
S. pneumoniae D39V | -0.0309

fitness
Details | first compound 0.04875 µg/mL | first compound 0.0975 µg/mL | first compound 0.195 µg/mL
B. subtilis 168 [3], partner 1.25 µg/mL | – | – | 0.53
B. subtilis 168 [3], partner 2.5 µg/mL | 0.719 | – | 0.513
B. subtilis 168 [3], partner 5 µg/mL | 0.59 | 0.501 | 0.463
S. aureus Newman [4], partner 1.25 µg/mL | 0.903 | 0.869 | 0.897
S. aureus Newman [4], partner 2.5 µg/mL | 0.84 | 0.779 | 0.864
S. aureus Newman [4], partner 5 µg/mL | 0.504 | 0.451 | 0.472

fitness, B. subtilis 168 [3], one replicate
Details | first compound 1.562 µg/mL | first compound 3.125 µg/mL | first compound 6.25 µg/mL
partner 1.25 µg/mL | 0.331 | 0.306 | 0.24
partner 2.5 µg/mL | 0.308 | 0.258 | 0.192
partner 5 µg/mL | 0.253 | 0.215 | 0.184

CO/N=C(\C(=O)N[C@@H]1C(=O)N2C(C(=O)O)=C(COC(N)=O)CS[C@H]12)c1ccco1 [Cefuroxime] + Cc1cc(NS(=O)(=O)c2ccc(N)cc2)no1 [Sulfamethoxazol]
Details | Bliss interaction score
B. subtilis 168 [1] | -0.0536
S. aureus DSM 20231 | 0.111
S. aureus Newman [2] | -0.0351
S. pneumoniae D39V | -0.0409

fitness
Details | first compound 0.04875 µg/mL | first compound 0.0975 µg/mL | first compound 0.195 µg/mL
B. subtilis 168 [3], partner 1 µg/mL | 0.708 | 0.67 | 0.404
B. subtilis 168 [3], partner 2 µg/mL | 0.709 | 0.632 | 0.398
B. subtilis 168 [3], partner 4 µg/mL | 0.687 | 0.636 | 0.5
S. aureus Newman [4], partner 1 µg/mL | ≥ 1 | 0.954 | 0.879
S. aureus Newman [4], partner 2 µg/mL | 0.953 | 0.966 | 0.836
S. aureus Newman [4], partner 4 µg/mL | 0.986 | 0.935 | 0.84

fitness, B. subtilis 168 [3], one replicate
Details | first compound 0.195 µg/mL | first compound 0.39 µg/mL | first compound 0.78 µg/mL | first compound 1.562 µg/mL | first compound 3.125 µg/mL | first compound 6.25 µg/mL
partner 0.5 µg/mL | 0.405 | 0.438 | 0.356 | – | – | –
partner 1 µg/mL | – | 0.0396 | 0.107 | 0.267 | 0.221 | 0.202
partner 2 µg/mL | – | 0.29 | 0.262 | 0.251 | 0.198 | 0.132
partner 4 µg/mL | – | – | – | 0.252 | 0.206 | 0.162

CO/N=C(\C(=O)N[C@@H]1C(=O)N2C(C(=O)O)=C(COC(N)=O)CS[C@H]12)c1ccco1 [Cefuroxime] + CCN(CC)CCOC(=O)c1ccc(N)cc1 [Procaine]
Details | Bliss interaction score
B. subtilis 168 [1] | 0.0619
S. aureus DSM 20231 | 0.0947
S. aureus Newman [2] | -0.0324
S. pneumoniae D39V | -0.0452

fitness
Details | first compound 0.04875 µg/mL | first compound 0.0975 µg/mL | first compound 0.195 µg/mL
B. subtilis 168 [3], partner 85.5 µg/mL | 0.756 | 0.685 | 0.527
B. subtilis 168 [3], partner 171 µg/mL | 0.762 | 0.65 | 0.512
B. subtilis 168 [3], partner 342 µg/mL | 0.75 | – | 0.519
S. aureus Newman [4], partner 85.5 µg/mL | 0.953 | 0.92 | 0.904
S. aureus Newman [4], partner 171 µg/mL | 0.962 | 0.904 | 0.905
S. aureus Newman [4], partner 342 µg/mL | 0.947 | 0.907 | 0.902

fitness, B. subtilis 168 [3], one replicate
Details | first compound 1.562 µg/mL | first compound 3.125 µg/mL | first compound 6.25 µg/mL
partner 85.5 µg/mL | 0.348 | 0.28 | 0.225
partner 171 µg/mL | 0.288 | 0.256 | 0.153
partner 342 µg/mL | 0.293 | 0.233 | 0.202

CO/N=C(\C(=O)N[C@@H]1C(=O)N2C(C(=O)O)=C(COC(C)=O)CS[C@H]12)c1csc(N)n1 [Cefotaxime] + CO/N=C(\C(=O)N[C@@H]1C(=O)N2C(C(=O)O)=C(COC(N)=O)CS[C@H]12)c1ccco1 [Cefuroxime]
Details | Bliss interaction score
B. subtilis 168 [1] | 0.0852
S. aureus DSM 20231 | 0.107
S. aureus Newman [2] | -0.0451
S. pneumoniae D39V | -0.0369

fitness, B. subtilis 168 [3], one replicate
Details | first compound 0.00775 µg/mL | first compound 0.0155 µg/mL | first compound 0.031 µg/mL | first compound 0.0625 µg/mL | first compound 0.125 µg/mL | first compound 0.25 µg/mL | first compound 0.5 µg/mL | first compound 1 µg/mL | first compound 2 µg/mL
partner 0.04875 µg/mL | – | – | – | 0.421 | 0.41 | 0.354 | 0.0782 | 0.0681 | 0.0589
partner 0.0975 µg/mL | – | – | – | 0.492 | 0.444 | 0.451 | 0.0682 | 0.0388 | 0.0337
partner 0.195 µg/mL | 0.236 | 0.172 | 0.176 | 0.329 | 0.331 | 0.305 | 0.0838 | 0.0517 | 0.0469
partner 0.39 µg/mL | 0.194 | 0.121 | 0.138 | – | – | – | – | – | –
partner 0.78 µg/mL | 0.147 | 0.0786 | 0.0789 | – | – | – | – | – | –
partner 1.562 µg/mL | – | – | – | – | – | – | 0.308 | 0.139 | 0.161
partner 3.125 µg/mL | – | – | – | – | – | – | 0.286 | 0.1 | 0.138
partner 6.25 µg/mL | – | – | – | – | – | – | 0.261 | 0.114 | 0.0944

fitness, S. aureus Newman [4]
Details | first compound 0.078 µg/mL | first compound 0.156 µg/mL | first compound 0.312 µg/mL
partner 0.04875 µg/mL | 0.834 | 0.698 | 0.384
partner 0.0975 µg/mL | 0.798 | 0.574 | 0.295
partner 0.195 µg/mL | 0.84 | 0.596 | 0.237

CO/N=C(\C(=O)N[C@@H]1C(=O)N2C(C(=O)O)=C(COC(N)=O)CS[C@H]12)c1ccco1 [Cefuroxime] + CC(C1CCC(C(O1)OC2C(CC(C(C2O)OC3C(C(C(CO3)(C)O)NC)O)N)N)N)NC [Gentamicin]
main component drawn
Details | Bliss interaction score
B. subtilis 168 [1] | 0.0914
S. aureus DSM 20231 | -0.313
S. aureus Newman [2] | -0.165
S. pneumoniae D39V | -0.0232

fitness, main component drawn
Details | first compound 0.04875 µg/mL | first compound 0.0975 µg/mL | first compound 0.195 µg/mL
B. subtilis 168 [3], partner 0.0625 µg/mL | 0.708 | 0.675 | 0.587
B. subtilis 168 [3], partner 0.125 µg/mL | – | 0.379 | 0.0507
B. subtilis 168 [3], partner 0.25 µg/mL | 0.0653 | 0.0449 | 0.0518
S. aureus Newman [4], partner 1 µg/mL | 0.937 | 0.923 | 0.942
S. aureus Newman [4], partner 2 µg/mL | 0.867 | 0.723 | 0.628
S. aureus Newman [4], partner 4 µg/mL | 0.0568 | 0.0486 | 0.0654

fitness, B. subtilis 168 [3], one replicate, main component drawn
Details | first compound 0.39 µg/mL | first compound 0.78 µg/mL | first compound 1.562 µg/mL | first compound 3.125 µg/mL | first compound 6.25 µg/mL
partner 0.0625 µg/mL | 0.6 | 0.549 | 0.249 | 0.0632 | 0.0658
partner 0.125 µg/mL | 0.202 | 0.142 | 0.0288 | 0.0271 | 0.0297
partner 0.25 µg/mL | 0.152 | 0.0935 | 0.0323 | 0.029 | 0.0215
